This note sets out measurements from PMC4342408 (Structure(London, England:1993), 2014).

Substitutions are numbered along the chain they refer to.

Series [1] addresses T1, HYPE (Homo sapiens, UniProt Q9BVA6, E234G).
T1 construct: gene FICD; 172–434
T1 sequence (Q9BVA6 172-434 E234G): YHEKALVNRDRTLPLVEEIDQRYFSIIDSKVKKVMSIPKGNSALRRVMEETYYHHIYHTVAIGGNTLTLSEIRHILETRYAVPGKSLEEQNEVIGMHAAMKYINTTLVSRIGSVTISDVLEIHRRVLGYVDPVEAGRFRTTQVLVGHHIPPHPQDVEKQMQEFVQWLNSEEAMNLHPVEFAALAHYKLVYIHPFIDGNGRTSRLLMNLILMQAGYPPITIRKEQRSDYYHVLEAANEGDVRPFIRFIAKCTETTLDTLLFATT
The experiment in a line: differential scanning fluorimetry (thermal shift), […] ligand. The series is classed as binding. For orientation: DSF heats the sample and reads unfolding from a dye or from intrinsic fluorescence.

The target in series [2] is T2, HYPE (Homo sapiens, UniProt Q9BVA6).
T2 construct: gene FICD; residues 103-445
T2 sequence (Q9BVA6 103-445): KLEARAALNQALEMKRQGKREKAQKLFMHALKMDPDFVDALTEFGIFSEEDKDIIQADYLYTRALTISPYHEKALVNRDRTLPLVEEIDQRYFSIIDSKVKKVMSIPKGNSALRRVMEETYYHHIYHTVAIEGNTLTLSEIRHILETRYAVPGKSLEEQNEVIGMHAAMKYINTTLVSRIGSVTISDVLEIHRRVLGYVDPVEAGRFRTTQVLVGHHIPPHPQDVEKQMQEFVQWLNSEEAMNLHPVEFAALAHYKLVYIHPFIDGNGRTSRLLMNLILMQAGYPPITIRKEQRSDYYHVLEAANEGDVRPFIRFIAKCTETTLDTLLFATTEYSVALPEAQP
In words: ITC; crystal structure; thermal shift. The series is classed as binding. In general terms: Isothermal titration calorimetry measures the heat released or taken up as one component is titrated into another.

For series [3], the target named is T3, HYPE (Homo sapiens, UniProt Q9BVA6, E234G).
T3 sequence (Q9BVA6 103-445 E234G): T2 sequence (Q9BVA6 103-445) with E132G
In words: ITC; crystal structure; thermal shift. Further details: gene FICD; residues 103-445. The series is classed as binding.

Series [4] deals with T3, HYPE. The experiment in a line: crystal structure ([…] Å); thermal shift. Further details: gene FICD; TPR-motifs, linker and FIC domain (lacking first 102 residues). In kind it is binding.
Series [5] addresses wild-type HYPE construct lacking the first 102 amino-acid residues (construct used for crystallization) (human) (UniProt Q9BVA6). In words: SAXS; small angle X-ray scattering of soluble HYPE constructs in solution; methods in Supplemental Experimental Procedures.
Series [6] concerns the molecule itself. In words: SEC; analytical gel filtration of purified HYPE constructs.

Consider `O=c1ccn([C@@H]2O[C@H](CO[P@@](=O)(O)O[P@@](=O)(O)OP(=O)(O)O)[C@@H](O)[C@H]2O)c(=O)[nH]1` (stereo in doubt) [uridine triphosphate], for which the “differential scanning fluorimetry (thermal shift), 200 μM ligand” value at HYPE [1] was “a less strong binding of cytidine triphosphate and uridine triphosphate (Figure 6A)”.

A word on the Kd: it is the concentration at which binding is half-saturated. On to `Nc1ncnc2c1ncn2[C@@H]1O[C@H](COP(=O)(O)OP(=O)(O)O)[C@@H](O)[C@H]1O` [ADP], for which the Kd was determined as 1500 nM at HYPE [2] and 160 nM at HYPE [3].

Consider `Nc1ncnc2c1ncn2C1OC(COP(=O)(O)OP(=O)(O)OP(=O)(O)O)C(O)C1O` (centres unmarked) [ATP], for which the “crystal structure (2.7 Å); thermal shift” value at HYPE [4] is given as “we have also obtained structures with the ATP cofactor bound to an E234G variant”.

Regarding `Nc1nc2c(ncn2[C@@H]2O[C@H](COP(=O)(O)OP(=O)(O)OP(=O)(O)O)[C@@H](O)[C@H]2O)c(=O)[nH]1` [guanosine-5'-triphosphate], the “differential scanning fluorimetry (thermal shift), 200 μM ligand” value at HYPE [1] is “showed similar binding of ATP and guanosine-5'-triphosphate”.

The stoichiometry N is a count of units in the complex or per binding partner. In turn, “wild-type HYPE construct lacking the first 102 amino-acid residues (construct used for crystallization) (from UniProt Q9BVA6 103-458) (domain or fragment)” returned a stoichiometry N in series [5] of 2.

B1: HYPE (172–445), containing the linker helix and FIC domain (domain or fragment, human, UniProt Q9BVA6 172-445, looked up)
chain: YHEKALVNRDRTLPLVEEIDQRYFSIIDSKVKKVMSIPKGNSALRRVMEETYYHHIYHTVAIEGNTLTLSEIRHILETRYAVPGKSLEEQNEVIGMHAAMKYINTTLVSRIGSVTISDVLEIHRRVLGYVDPVEAGRFRTTQVLVGHHIPPHPQDVEKQMQEFVQWLNSEEAMNLHPVEFAALAHYKLVYIHPFIDGNGRTSRLLMNLILMQAGYPPITIRKEQRSDYYHVLEAANEGDVRPFIRFIAKCTETTLDTLLFATTEYSVALPEAQP
notes: human HYPE (FICD), residues 172-445: linker helix and FIC domain; cloned into pOPINS; also called ΔTPR; HYPE lacking TPR-motifs; source: E. coli C41(DE3), purified (Ni2+ chelating, Q-sepharose, gel filtration)
On to B1, for which the binding result in series [6] is “binds”.

B2: HYPE variant (103–434), containing TPR-motifs, linker, and FIC domain (domain or fragment, human, UniProt Q9BVA6 103-434, looked up)
chain: KLEARAALNQALEMKRQGKREKAQKLFMHALKMDPDFVDALTEFGIFSEEDKDIIQADYLYTRALTISPYHEKALVNRDRTLPLVEEIDQRYFSIIDSKVKKVMSIPKGNSALRRVMEETYYHHIYHTVAIEGNTLTLSEIRHILETRYAVPGKSLEEQNEVIGMHAAMKYINTTLVSRIGSVTISDVLEIHRRVLGYVDPVEAGRFRTTQVLVGHHIPPHPQDVEKQMQEFVQWLNSEEAMNLHPVEFAALAHYKLVYIHPFIDGNGRTSRLLMNLILMQAGYPPITIRKEQRSDYYHVLEAANEGDVRPFIRFIAKCTETTLDTLLFATT
notes: human HYPE (FICD), residues 103-434: TPR-motifs (105-135, 140-170), linker (170-215), FIC domain (215-432); cloned into pOPINS; wild type; also called HYPE (103-434); source: E. coli C41(DE3), purified (Ni2+ chelating, Q-sepharose, gel filtration)
In the case of B2, the “stoichiometry N” value in series [6] was 2.
